Laboratory results taken from US7994133B2, “Isozyme-specific antagonists of protein kinase C” (The Board of Trustees of the Leland Stanford Junior …, priority 2003, dated 2011).

Tests used:
Assay type in all cases: cell-based
[1] = system: neonatal rat cardiac myocytes; assay: Cardiac myocyte contraction rate measurement; conditions: for effect on the decrease in contraction rate induced by PMA: 1 nM or 5 nM PMA about 20 minutes after peptide; for agonistic effect on contraction rate of cardiac myocytes: prior to PMA; for effect on ΨεRACK effect on contraction (negative chronotropy): PMA and ΨεRACK, prior application of the inhibitor
Procedure: Primary cardiac myocyte cell cultures (90-95% pure) were prepared from newborn rats as previously described (Gray, M. O., et al., J. Biol. Chem. 272:30945-30951, (1997); Disatnik, M.-H., et al., Exp. Cell Res. 210:287-297, (1994)). Peptides (100 nM-1 μM applied concentration) were introduced into cells by transient permeabilization (Johnson, J. A., et al., Circ. Res. 79:1086-1099, (1996)) with sham permeabilization as control, or as carrier-peptide conjugates (30 nM-1 μM) (Derossi, D. et al., surpa (1994); Derossi, D. et al., surpa (1996); Théodore, L., et al., surpa (1995)) with a carrier-carrier dimer as a control.
Cells were treated for 10-20 minutes in the absence or presence of peptide followed by an additional incubation with or without 1 nM phorbol 12-myristate 13-acetate (PMA) for 10 or 20 minutes. Alternatively, cells were incubated for 10 minutes with 100 nM PMA (positive control) or in the absence of PMA.
Measurements of cardiac myocyte contraction rate were carried out essentially as previously described (Johnson, J. A., et al., J. Biol. Chem. 271:24962-24966, (1996). In brief, cardiomyocytes cultured on 35 mm plates were placed in a temperature-regulation apparatus at 37° C. (Medical Systems Corp.) and positioned on the stage of an inverted microscope (Carl Zeiss Inc.). The contraction rates of four cells in one microscopic field were determined every 2 minutes for 15 seconds each. The basal contraction rate (˜300 beats/minute) was stable over many hours.
Peptide SEQ ID Nos:3, 55 and 79 were introduced into cardiac myocyte cell cultures prepared from newborn rats by transient permeabilization, with sham permeabilization as control, or as carrier-peptide conjugates with a carrier-carrier dimer as control. The cells were treated for 10-20 minutes in the absence or presence of peptide followed by an additional incubation with or without phorbol 12-myristate 13-acetate (PMA) for 10 or 20 minutes. Alternatively, cells were incubated for 10 minutes with 100 nM PMA (positive control) or in the absence of PMA. The effect of the peptide and/or PMA was determined by measuring the contraction rate of the myocytes, as described in Example 1B.

rat cardiac myocytes = assay: Simulated ischemia, cell damage by trypan blue exclusion; conditions: for effect on ΨεRACK-induced protection from ischemic damage: in combination with ΨεRACK; for effect on response to ischemia: peptide alone before simulated ischemia
Procedure: Cardiac myocytes were isolated from adult male rats as previously described (Chen et al., Proc. Natl. Acad. Sci., 96(22):12784 (1999)). Myocytes in incubation buffer were treated with a peptide or combination of peptides, prepared as described in Example 1, for 15 minutes. Myocytes were then pelleted at 1000 rpm for 1 minute in a degassed incubation buffer saturated with nitrogen and incubated at 37° C. for 3 hours to simulate ischemia. Cell damage was assessed after the 3 hours by trypan blue exclusion and percent cell with damage was determined as previously described (Chen et al., Proc. Natl. Acad. Sci., 96(22):12784 (1999)).

[2] = system: neonatal rat cardiac myocytes; assay: Cardiac myocyte contraction rate measurement; conditions: 40 minutes after PMA addition, n=4, p<0.05; PMA alone versus with N-ΨεRACK

Row | Compound | effect on the decrease in contraction rate induced by PMA [1] | agonistic effect on contraction rate of cardiac myocytes ([1]; peptide alone) | effect on ΨεRACK-induced protection from ischemic damage (rat cardiac myocytes) | effect on response to ischemia (rat cardiac myocytes) | decrease in contraction rate induced by 10 nM PMA [2] | effect on ΨεRACK effect on contraction (negative chronotropy) [1] | other results
1 | HNAPIGYD (A modification of SEQ ID NO3) [N-ΨεRACK, εPKC antagonist peptide derived from ΨεRACK, D substituted by N] | able to reduce the decrease in contraction rate | no agonistic effect | abolished | no effect | 24±5% |  | decrease in contraction rate ([1]; cells treated with N-ΨεRACK, then ΨεRACK at 15 minutes and 1 nM PMA at 30 minutes): < 10%
2 | EAVSLKPT (listed as Homo sapiens) [εV1-2, reference compound] |  |  | reversed |  |  | abolished | 
3 | HAAPIGYD (Alternative pseudo-epsilon RACK peptide) [A-ΨεRACK] |  | not induced | did not | no effect |  |  | 
4 | HDAPIGYD (listed as Homo sapiens) [ΨεRACK, εPKC agonist peptide, εPKC amino acid residues 85-92] | reduced the decrease in contraction rate |  |  |  |  |  | decrease in contraction rate from the basal rate ([1]; peptide alone, 20 minutes after peptide addition): 9±2%; decrease from the basal contraction rate ([1]; ΨεRACK together with PMA): 44±6%; reduction of ischemia-induced cell damage (rat cardiac myocytes; peptide 15 minutes before 3 hours simulated ischemia): 60%
5 | CCCCCCCCCCCCCC(=O)O[C@@H]1[C@@H](C)[C@@]2(O)[C@@H](C=C(CO)C[C@]3(O)C(=O)C(C)=C[C@@H]23)[C@@H]2C(C)(C)[C@]12OC(C)=O [PMA, phorbol 12-myristate 13-acetate, reference compound] |  |  |  |  | 47±3% |  | decrease from the basal contraction rate ([1]; PMA alone): 11±4%
6 | COc1ccc2c(c[n+](C)c3c4cc5c(cc4ccc23)OCO5)c1OC [chelerythrine, reference compound] |  |  | reversed |  |  | inhibited | 
